The values that follow come from article PMC12287522 (Scientific Reports, 2025).

Experiment [1] relates to human colorectal cancer cell line (HCT116). The experiment in a line: MTT assay, HCT116 cell line. Format: cell-based. As to conditions: for IC50: Homo sapiens, HCT-116, read-out: Anticancer activity (IC50) HCT116; for anticancer action against HCT116 (in words): SAR discussion.
For experiment [2], the system named is human lung adenocarcinoma cell line (A549). Kind of experiment: MTT assay, A549 cell line. In kind it is cell-based. Particulars: SAR discussion.

As for `Cc1cncc(NC(=O)Cn2cc(COc3ncnc4[nH]cnc34)nn2)c1` [5a, 2-(4-(((9 H-purin-6-yl)oxy)methyl)-1 H-1,2,3-triazol-1-yl)-N-(5-methylpyridin-3-yl)acetamide], the IC50 in experiment [1] stood at 6.23 ± 0.23 µM.

In the case of `COc1cccc(NC(=O)Cn2cc(COc3ncnc4[nH]cnc34)nn2)c1` [5 g, 2-(4-(((9 H-purin-6-yl)oxy)methyl)-1 H-1,2,3-triazol-1-yl)-N-(3-methoxyphenyl)acetamide], in experiment [1], the IC50 is above 100 µM and the “anticancer action against HCT116 (in words)” value (shortened to “anticancer action”) is reported as “did not exhibit anticancer action”.

Regarding `O=C(Cn1cc(COc2ncnc3[nH]cnc23)nn1)Nc1ccc(O)cc1` [5 h, 2-(4-(((9 H-purin-6-yl)oxy)methyl)-1 H-1,2,3-triazol-1-yl)-N-(4-hydroxyphenyl)acetamide], in experiment [1], the IC50 was 12.3 ± 0.52 µM and the “anticancer action” value is “moderately inhibited”.

As for `O=C(Cn1cc(COc2ncnc3[nH]cnc23)nn1)NCc1ccc(O)cc1` [5i, 2-(4-(((9 H-purin-6-yl)oxy)methyl)-1 H-1,2,3-triazol-1-yl)-N-(4-hydroxybenzyl)acetamide], the “inhibitory potential against A549 (in words)” value (“inhibitory potential” for short) in experiment [2] was “significantly reduced”. Besides, in experiment [1], the IC50 was 7.88 ± 0.6 µM and the “anticancer action” value is “moderately inhibited”.

Regarding `Cc1ccc(NC(=O)Cn2cc(COc3ncnc4[nH]cnc34)nn2)c(C)c1` [5d, 2-(4-(((9 H-purin-6-yl)oxy)methyl)-1 H-1,2,3-triazol-1-yl)-N-(2,4-dimethylphenyl)acetamide], the “anticancer action” value in experiment [1] is “did not exhibit anticancer action”.

`COc1ccc(CNC(=O)Cn2cc(COc3ncnc4[nH]cnc34)nn2)cc1` [5k, 2-(4-(((9 H-purin-6-yl)oxy)methyl)-1 H-1,2,3-triazol-1-yl)-N-(4-methoxybenzyl)acetamide]: in experiment [1], the “anticancer action” value was “did not exhibit anticancer action”.

In the case of `O=C(Cn1cc(COc2ncnc3[nH]cnc23)nn1)Nc1ccc(F)c(Cl)c1` [5e, 2-(4-(((9 H-purin-6-yl)oxy)methyl)-1 H-1,2,3-triazol-1-yl)-N-(3-chloro-4-fluorophenyl)acetamide], in experiment [1], the IC50 is 6.11 ± 0.29 µM.

Consider `O=C(Cn1cc(COc2ncnc3[nH]cnc23)nn1)Nc1ccc([N+](=O)[O-])cc1` [5f, 2-(4-(((9 H-purin-6-yl)oxy)methyl)-1 H-1,2,3-triazol-1-yl)-N-(4-nitrophenyl)acetamide], for which the “inhibitory potential” value in experiment [2] is “significantly reduced”. In addition, in experiment [1], the IC50 was found to be 13.9 ± 0.19 µM.

For the compound `COc1cccc2c1C(=O)c1c(O)c3c(c(O)c1C2=O)C[C@@](O)(C(=O)CO)C[C@@H]3O[C@H]1C[C@H](N)[C@H](O)[C@H](C)O1` [DXN, doxorubicin, reference compound], in experiment [1], the IC50 worked out at 7.27 ± 0.39 µM.

On to `Cc1cccc(NC(=O)Cn2cc(COc3ncnc4[nH]cnc34)nn2)c1` [5c, 2-(4-(((9 H-purin-6-yl)oxy)methyl)-1 H-1,2,3-triazol-1-yl)-N-(m-tolyl)acetamide], for which the “inhibitory potential” value in experiment [2] is “significantly reduced”.

In the case of `O=C(Cn1cc(COc2ncnc3[nH]cnc23)nn1)NCc1ccc(Cl)cc1` [5j, 2-(4-(((9 H-purin-6-yl)oxy)methyl)-1 H-1,2,3-triazol-1-yl)-N-(4-chlorobenzyl)acetamide], in experiment [1], the IC50 amounted to 22.6 ± 0.38 µM.

For the compound `O=Cc1cccc(NC(=O)Cn2cc(COc3ncnc4[nH]cnc34)nn2)c1` [5b, 2-(4-(((9 H-purin-6-yl)oxy)methyl)-1 H-1,2,3-triazol-1-yl)-N-(3-formylphenyl)acetamide], the IC50 in experiment [1] turned out to be 15.6 ± 0.45 µM.
